According to patent publication US20070128669A1, “Serum-free expansion of cells in culture” (Institute for Chemical Genomics, priority 2005, published 2007):

Assays:
CBP/β-catenin complex = target: T1, CBP/β-catenin complex (Mus musculus, UniProt P45481); assay: Co-immunoprecipitation of β-catenin with CBP in P19 cells; assay type: cell-based; conditions: Wnt3a, 10 μM, 24 hours
T1 construct: endogenous in cells; host or cells: P19 cells (nuclear fraction)
Protocol: Co-immunoprecipitation of β-catenin with CBP or p300 in P19 cells. Co-immunoprecipitation was performed as described in (27). Briefly, P19 cells were treated with 10 μM ICG-001 or 10 μM IQ-1 (control DMSO was 0.025%) for 24 hours, after which they were washed and lysed […]. Nuclear fraction was isolated and precleared with antibodies to CBP(A-22) or p300(N-15). β-catenin was detected using a mouse monoclonal antibody (Becton Dickinson) at a dilution of 1:5000.

ESCs [1] = assay: Long term feeder-free culture of ESCs in serum-free (15% KSR) media; assay type: cell-based, mouse
Protocol: FIG. 7. […] ESCs were cultured in 15% KSR, 4 μg/ml of IQ-1 and 100 ng/ml Wnt3a. ESCs were passaged 2-3 times per week at 1×10^5-1×10^6 cells per 6 cm dish and cells were counted.
FIG. 8. […] AP activity of ESCs cultured for 7 days in IQ-1 containing media supplemented with 15% FCS or 15% KSR. […] (Error bars represent ±S.D.)
FIG. 9. […] Over the 42-day culture period, ESCs cultured in the media in the presence of IQ-1 and Wnt3a maintain expression of the pluripotency markers, (a) Nanog, (b) Oct3/4 and (c) Rex-1. The expression level on day 0 was set as 1.
Cell culture. ESCs, D3ES (ATCC CRL-1934) were maintained on Mitomycin C treated MEFs in mouse ESC medium containing DMEM (Invitrogen) supplemented with 15% FBS (Invitrogen), 0.1 mM MEM nonessential amino acids (Invitrogen), 0.1 mM 2-mercaptoethanol (Sigma), 2 mM L-glutamine (Invitrogen) and 1,000 U/ml LIF (CHEMICON). To remove MEFs, cells were collected by trypsinization and plated on gelatin-coated culture dishes for 20 min. Non-adherent cells consisting mainly of ESCs were replated on gelatin-coated culture dishes again. Non-adherent cells were used for further experiments. P19 cells were cultured according to conditions recommended by the ATCC. Cells were incubated at 37° C. in a 5% CO2 incubator. Purified Wnt3a was purchased (R&D Systems).

Stat3 signaling pathway = assay: pSTAT3-TA-Luc luciferase reporter assay in ESCs; assay type: cell-based, mouse; conditions: 24 hours exposure
Protocol: Transfection and Luciferase assay. ESCs were cultured in 96-well cell culture dishes coated with a 0.1% aqueous gelatin solution and transfected with 0.2 μg/well of pSTAT3-TA-Luc (CLONTECH), using Lipofectamine 2000 (Invitrogen). After 6 hours, cells were washed and exposed to either IQ-1 at the indicated doses, or LIF, for 24 hours. Transfection efficiencies were normalized with pRL-null luciferase plasmid. Luciferase assays were performed with the DUAL-Luciferase Reporter Assay System (Promega).

ESCs [2] = assay: Embryoid body formation and differentiation of long term cultured ESCs; assay type: cell-based, mouse
Protocol: FIG. 5. […] FIG. 5A, long term cultured ESCs were induced to form embryoid bodies in suspension cultures for 3 days. ESCs cultured in media in the presence of Wnt3A and IQ-1 (4 μg/ml) for 48 days were able to form embryoid bodies (Left). ESCs lose their ability to form embryoid bodies after 3 days of culturing in the absence IQ-1 (Right). FIG. 5B, IQ-1 treated ESCs derived embryoid bodies were cultured (adherence culture) for 7-14 days to induce further differentiation. […] FIG. 5C, model depicting the proposed mechanism of action of IQ-1.
Immunocytochemistry and Antibodies. Cells were fixed for 20 min with 4% paraformaldehyde in PBS. Immunostaining was carried out using standard protocols. Primary antibodies were used at the following dilutions: anti α-fetoprotein mouse monoclonal (R&D systems, 10 ug/ml), anti-Actin, Smooth muscle Ab-1 mouse monoclonal (LAB VISION, 1:1), anti-GATA4 mouse monoclonal (SANTA CRUZ, 1:100), anti-MAP (microtubule associated protein)2 mouse monoclonal (Chemicon, 1:200), βIII-tubulin mouse monoclonal (Chemicon, 1:200), anti-Oligodendrocyte mouse monoclonal (Chemicon, 1:1,000). Secondary antibodies were Alexa Fluor 488 or 594 goat anti-mouse IgG (H+L)(Invitrogen, 1:200). Cells were imaged using an Olympus IX 70 microscope with ×40-200 magnification.

[3] = test system: Nanog gene expression in ESCs; assay: Real-time RT-PCR for Nanog in feeder-free ESCs; assay type: cell-based, mouse
Protocol: FIG. 2. […] Real-time RT-PCR for Nanog was performed. The control expression level of Nanog at day 0 was set at 1. FIG. 2B, removal of IQ-1 decreases Nanog gene expression in ESCs. IQ-1 was removed from ESCs which had been cultured under feeder-free system and in the presence of IQ-1 (4 μg/ml), for three days. At the end of this period, mRNA was isolated and real-time RT-PCR was performed to assay for Nanog gene expression. FIG. 2C, effects of IQ-1 were not mediated through Stat3 signaling pathway as judged by luciferase reporter assay. Feeder-free ESCs, transfected with the pSTAT3-TA-Luc reporter, were exposed to IQ-1 at the indicated doses, or LIF. All error bars represent mean±SD.
Real-time RT-PCR. Total RNA was isolated and reverse-transcribed using SuperScript III (Invitrogen). Real-time RT-PCR (Sybr Green; BioRad) was performed using with the gene-specific primers: […]

T1 sequence (P45481 2-2441 limits assumed, one chain of several): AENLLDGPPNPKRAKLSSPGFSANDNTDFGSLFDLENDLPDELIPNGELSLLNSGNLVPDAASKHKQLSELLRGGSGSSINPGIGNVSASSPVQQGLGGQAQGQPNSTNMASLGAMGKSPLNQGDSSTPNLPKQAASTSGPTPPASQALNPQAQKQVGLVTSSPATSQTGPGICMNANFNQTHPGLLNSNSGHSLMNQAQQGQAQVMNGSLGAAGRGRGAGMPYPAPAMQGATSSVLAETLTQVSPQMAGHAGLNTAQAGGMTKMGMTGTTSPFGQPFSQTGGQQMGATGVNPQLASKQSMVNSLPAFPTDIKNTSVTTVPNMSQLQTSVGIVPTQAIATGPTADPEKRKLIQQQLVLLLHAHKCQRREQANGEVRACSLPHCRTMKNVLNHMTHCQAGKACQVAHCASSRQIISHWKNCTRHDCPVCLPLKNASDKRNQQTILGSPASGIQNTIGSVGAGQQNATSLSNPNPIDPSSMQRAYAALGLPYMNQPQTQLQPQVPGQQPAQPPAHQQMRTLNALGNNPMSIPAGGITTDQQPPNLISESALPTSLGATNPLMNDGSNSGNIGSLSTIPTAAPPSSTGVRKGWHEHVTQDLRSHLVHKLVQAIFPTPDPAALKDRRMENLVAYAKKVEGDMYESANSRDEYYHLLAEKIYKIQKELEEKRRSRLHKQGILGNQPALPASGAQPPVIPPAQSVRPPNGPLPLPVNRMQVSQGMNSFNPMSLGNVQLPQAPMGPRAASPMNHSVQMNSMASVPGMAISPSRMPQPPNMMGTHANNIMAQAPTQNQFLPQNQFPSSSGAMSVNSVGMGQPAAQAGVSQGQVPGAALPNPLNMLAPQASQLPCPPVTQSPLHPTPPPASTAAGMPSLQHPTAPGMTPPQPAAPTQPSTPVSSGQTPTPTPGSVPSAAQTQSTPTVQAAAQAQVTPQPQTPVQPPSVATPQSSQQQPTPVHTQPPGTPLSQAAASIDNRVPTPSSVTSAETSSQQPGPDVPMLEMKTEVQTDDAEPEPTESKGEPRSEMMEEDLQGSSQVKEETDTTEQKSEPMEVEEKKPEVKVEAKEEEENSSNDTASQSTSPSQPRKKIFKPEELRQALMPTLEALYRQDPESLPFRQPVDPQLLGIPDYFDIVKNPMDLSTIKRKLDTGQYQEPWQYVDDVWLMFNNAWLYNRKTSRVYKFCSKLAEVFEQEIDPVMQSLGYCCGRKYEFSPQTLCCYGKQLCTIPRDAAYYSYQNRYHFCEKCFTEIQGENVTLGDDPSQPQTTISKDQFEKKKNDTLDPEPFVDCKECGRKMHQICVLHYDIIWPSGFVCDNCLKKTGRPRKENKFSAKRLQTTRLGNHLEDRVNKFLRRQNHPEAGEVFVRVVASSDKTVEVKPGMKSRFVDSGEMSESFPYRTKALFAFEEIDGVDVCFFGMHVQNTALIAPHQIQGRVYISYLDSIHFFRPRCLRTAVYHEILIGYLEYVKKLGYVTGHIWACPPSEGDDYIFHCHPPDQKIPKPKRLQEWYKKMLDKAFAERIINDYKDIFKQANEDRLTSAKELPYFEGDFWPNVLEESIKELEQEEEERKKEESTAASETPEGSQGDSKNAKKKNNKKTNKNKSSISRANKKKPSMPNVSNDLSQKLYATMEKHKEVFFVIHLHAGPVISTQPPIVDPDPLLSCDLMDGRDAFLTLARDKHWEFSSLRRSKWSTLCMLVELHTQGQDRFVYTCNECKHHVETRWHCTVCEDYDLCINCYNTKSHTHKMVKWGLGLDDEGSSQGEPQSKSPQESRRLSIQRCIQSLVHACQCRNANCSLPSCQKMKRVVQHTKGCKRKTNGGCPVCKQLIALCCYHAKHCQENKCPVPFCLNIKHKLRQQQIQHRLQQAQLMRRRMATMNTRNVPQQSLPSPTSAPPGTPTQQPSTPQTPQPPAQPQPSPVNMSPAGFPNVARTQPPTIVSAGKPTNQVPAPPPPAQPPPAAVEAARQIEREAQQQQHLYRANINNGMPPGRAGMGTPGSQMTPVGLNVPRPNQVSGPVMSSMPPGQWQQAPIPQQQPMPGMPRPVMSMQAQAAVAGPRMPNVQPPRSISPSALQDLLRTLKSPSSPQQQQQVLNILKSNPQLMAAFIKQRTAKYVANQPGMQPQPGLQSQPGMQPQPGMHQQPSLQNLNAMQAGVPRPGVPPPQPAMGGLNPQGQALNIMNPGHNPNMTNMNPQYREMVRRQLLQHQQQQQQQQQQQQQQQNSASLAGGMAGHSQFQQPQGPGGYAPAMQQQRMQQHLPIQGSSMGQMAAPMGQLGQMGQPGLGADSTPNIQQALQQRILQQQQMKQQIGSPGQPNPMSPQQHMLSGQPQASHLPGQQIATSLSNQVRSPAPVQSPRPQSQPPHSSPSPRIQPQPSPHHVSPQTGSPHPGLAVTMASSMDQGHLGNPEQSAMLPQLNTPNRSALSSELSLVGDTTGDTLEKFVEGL

Question: For `CC(=O)c1ccc(NN=C(C(N)=O)C2=NC(C)(C)Cc3ccccc32)cc1` [IQ-1], which “relative amount of β-catenin associated with CBP” value (CBP/β-catenin complex) is on record?
Answer: dramatic increase

Question: What about the “proliferation and expression of Oct4, Nanog and Rex1, combination of Wnt3a and IQ-1” value (ESCs [1]; 15% KSR, Wnt3a 100 ng/ml plus IQ-1 4 μg/ml) of the same compound?
Answer: allowed for proliferation and maintenance of pluripotency

Question: And the “time ESC proliferation and pluripotency maintained in culture” value (ESCs [1]; IQ-1 in conjunction with purified Wnt3a, absence of serum)?
Answer: at least 48 days

Question: And the “maintenance of undifferentiated status of ESCs, agent alone” value (ESCs [1]; KSR media, single agent)?
Answer: Neither Wnt3a nor IQ-1 alone was sufficient

Question: And the Stat3/luciferase expression (Stat3 signaling pathway)?
Answer: did not affect Stat3/luciferase expression

Question: And the “pluripotency: embryoid body formation and differentiation to three germ layers” value (ESCs [2]; IQ-1 (4 μg/ml) and Wnt3a, after day 48)?
Answer: maintained the pluripotency of ESCs

Question: What about the “time to loss of pluripotency after removal of IQ-1” value (ESCs [2]; removal of IQ-1) of the same compound?
Answer: ≤ 3 days

Question: And the “Nanog level after removal of IQ-1 from culture” value ([3]; IQ-1 (4 μg/ml) removed for three days)?
Answer: precipitous drop in Nanog level

Question: What about the Nanog expression ([3]; feeder-free ESCs, IQ-1 4 μg/ml or LIF 1000 U/ml, 21 hrs) of the same compound?
Answer: significantly increased and maintained Nanog expression
